Reference: US20150050240A1, “TREATMENT OF FIBROSIS” (NOVARTIS AG, priority 2012, published 2015)

Tests used:
[1] = system: lung fibroblasts from IPF patients; settings: cited from earlier work
[2] = cited from earlier work
[3] = system: primary human lung fibroblasts (HLFs); experiment: Fibroblast-to-myofibroblast transition (FMT), western blot for SMA; assay type: cell-based
Method: Primary human lung fibroblasts (Promocell) were maintained in DMEM supplemented with 10% heat-inactivated FBS, 1 mM Na-pyruvate and 1% Penicillin/Streptomycin and trypsinised every 4 days. Sub-confluent HLFs were electroporated via nucleofection (Amaxa electroporation system) with siRNAs.
(§1) HLFs, IPF donor cells, A549 cells lysates or lung tissue lysates were prepared in RIPA buffer. The patient lung biopsies study utilized biological specimens and data provided by the Lung Tissue Research Consortium (LTRC) supported by the National Heart, Lung, and Blood Institute (NHLBI). For Western blots, 1:1000-diluted mouse-anti-N-Cadherin (BD Biosciences), rabbit-anti-OB-Cadherin (Santa Cruz), mouse-anti-SMA (Sigma), mouse-anti-vimetin (DACO), mouse-anti-E-Cadherin (Abram), rabbit-anti-β-catenin (Cell Signaling Technology), anti-rabbit-p-[…]-β-catenin (Cell Signaling Technology), rabbit-anti-β-actin (Santa Cruz) and mouse-anti-GAPDH (Santa Cruz) were used in combination with HRP-conjugated secondary antibodies (GE Healthcare). Western blots were developed using an ECL system (GE Healthcare). Quantification of the intensity of the bands was performed using NIH ImageJ software.
To assess functional responses, non-transfected HLFs or HLFs transfected with siRNAs were plated in full growth medium and left to grow overnight, starved for 24 h in serum-free medium and stimulated with different growth factors for a further 24 h. For FMT assessment, the HLF cells were stimulated with 5 ng/ml TGFβ (R&D Systems) or 10 μg/ml human N-Cadherin-Fc (R&D Systems), for collagen secretion—with 1 ng/ml TGFβ, for proliferation—with FBS, 10 ng/ml PDGF-BB (R&D Systems) or 10 ng/ml FGF-2 (R&D Systems) and for migration—with 10 μg/ml human N-Cadherin-Fc (R&D Systems) or human OB-Cadherin-Fc (R&D Systems). […] The level of FMT was evaluated by western blot for SMA. Collagen secretion was measured by Sircol collagen assay (Biocolor Life Science). Proliferation assay was performed using the DELFIA system (PerkinElmer), and migration was assessed with the Oris System (Platypus Technology).

β-catenin = experiment: Western blots for p-Ser552 β-catenin and total β-catenin from HLFs; assay type: cell-based, human; settings: HLFs stimulated with TGFβ; FIG. 4A
Method: as §1
To assess the regulation of β-catenin in response to a fibrotic stimulus in HLFs, cells were stimulated with TGFβ and the expression levels and phosphorylation state of β-catenin were assessed by Western blot (FIG. 4A). There was no difference in the expression levels of total β-catenin in TGFβ-stimulated cells. However, when the cell lysates were probed with a phospho-specific β-catenin antibody, we found an increase in the phosphorylation of Ser552 upon TGFβ treatment. […]

N-Cadherin = N-Cadherin expression in HLFs (RT-PCR, western blot); assay type: cell-based, human; settings: TGFβ treatment, low and high cell density; FIG. 1A
Method: (§2) Total RNA was extracted from HLFs, transcribed into cDNA and used for RT-PCR. Validated Taqman N-Cadherin, OB-Cadherin, vimentin or E-Cadherin primers and probes were purchased from Applied Biosystems.
(§3) Small interfering RNAs against N-Cadehrin and OB-Cadherin were purchased from Applied Biosystems. Knockdown efficiencies were tested by using real-time RT-PCR and confirmed to be 95% at the time of stimulation in the different functional assays.
as §1

OB-Cadherin = OB-Cadherin expression in HLFs (RT-PCR, western blot); assay type: cell-based, human; settings: TGFβ treatment of HLFs; FIG. 1A
Method: as §2, §3, §1

[4] = cited from earlier work; remark: listed apart in the source
[5] = system: primary human lung fibroblasts (HLFs); experiment: HLF migration, in vitro wound closure assay (Oris System); assay type: cell-based; settings: 10 μg/ml N-Cadherin-Fc; FIG. 3A
Method: To assess functional responses, non-transfected HLFs or HLFs transfected with siRNAs were plated in full growth medium and left to grow overnight, starved for 24 h in serum-free medium and stimulated with different growth factors for a further 24 h. For FMT assessment, the HLF cells were stimulated with 5 ng/ml TGFβ (R&D Systems) or 10 μg/ml human N-Cadherin-Fc (R&D Systems), for collagen secretion—with 1 ng/ml TGFβ, for proliferation—with FBS, 10 ng/ml PDGF-BB (R&D Systems) or 10 ng/ml FGF-2 (R&D Systems) and for migration—with 10 μg/ml human N-Cadherin-Fc (R&D Systems) or human OB-Cadherin-Fc (R&D Systems). In the loss of function FMT experiment, 50 μg/ml N-Cadherin neutralizing antibody (clone GC-4, Sigma) was used. The level of FMT was evaluated by western blot for SMA. Collagen secretion was measured by Sircol collagen assay (Biocolor Life Science). Proliferation assay was performed using the DELFIA system (PerkinElmer), and migration was assessed with the Oris System (Platypus Technology).
Increased migration is a hallmark of myofibroblasts and is thought to contribute to the pathology of IPF. Therefore, we investigated the effects of N-Cadherin gain- and loss-of function on the migratory potential of HLFs. We performed an in vitro wound closure assay with cells treated with the recombinant N-Cadherin-Fc chimera or with N-Cadherin siRNA.

[6] = system: A549 epithelial alveolar type II cells; experiment: Epithelial-to-mesenchymal transition (EMT) in A549 cells (RT-PCR, western blot, E-Cadherin immunocytochemistry); assay type: cell-based, human; settings: recombinant N-Cadherin-Fc, immunocytochemistry for E-Cadherin
Method: A549 epithelial alveolar type II cells (ATCC) were maintained in DMEM supplemented with 10% heat-inactivated FBS and 1% Penicillin/Streptomycin and trypsinised every 4 days.
For EMT assessment, A549 cells were simulated with 5 ng/ml TGFβ (R&D Systems), a combination of 5 ng/ml TGFβ (R&D Systems) and 2.5 ng/ml IL-1β (R&D Systems) or N-Cadherin-Fc (R&D Systems). The level of EMT was evaluated either by RT-PCR and Western blot for vimentin and E-Cadheirn or by immunocytochemistry for E-Cadherin. In the loss of function EMT experiment, N-Cadherin neutralizing tool antibody or IgG isotype control were used in the presence of 18 μg/ml N-cadheirn-Fc (R&D Systems).

[7] = phase II trial with IPF patients
[8] = more recent clinical trial, discontinued in 2007

Cc1ccc(=O)n(-c2ccccc2)c1 [Pirfenidone]
collagen synthesis [1]: reduces collagen synthesis | mitogenic effects of pro-fibrotic cytokines [1]: blocks mitogenic effects | chest radiographs [2, 7]: did not improve | pulmonary functional tests [2, 7]: stabilized or improved in some patients | side effects [2, 7]: no severe side effects | survival rates [2, 7]: improved | lung function ([2]; phase III clinical trial, IPF patients): might positively affect lung function

TGFβ: TGFβ (R&D Systems), pro-fibrotic stimulus used to induce FMT
SMA expression ([3]; TGFβ stimulation, low and high cell density): marked increase | expression levels of total β-catenin (β-catenin): no difference | phosphorylation of Ser552 of β-catenin (β-catenin): increase | N-Cadherin expression (N-Cadherin): upregulated | OB-Cadherin expression (OB-Cadherin): upregulated

interferon
clinical improvement ([4]; IPF patients refractory to corticosteroid or immunosuppressive therapy): showed no improvement | clinical trial outcome [4, 8]: ineffectiveness | patients death rates compared with placebo [4, 8]: slightly increased

B1: N-Cadherin-Fc: human N-Cadherin-Fc fusion protein (R&D Systems) that mimics N-Cadherin homophilic interactions and activates N-Cadherin signalling (protein)
chain: DWVIPPINLPENSRGPFPQELVRIRSDRDKNLSLRYSVTGPGADQPPTGIFIINPISGQLSVTKPLDREQIARFHLRAHAVDINGNQVENPIDIVINVIDMNDNRPEFLHQVWNGTVPEGSKPGTYVMTVTAIDADDPNALNGMLRYRIVSQAPSTPSPNMFTINNETGDIITVAAGLDREKVQQYTLIIQATDMEGNPTYGLSNTATAVITVTDVNDNPPEFTAMTFYGEVPENRVDIIVANLTVTDKDQPHTPAWNAVYRISGGDPTGRFAIQTDPNSNDGLVTVVKPIDFETNRMFVLTVAAENQVPLAKGIQHPPQSTATVSVTVIDVNENPYFAPNPKIIRQEEGLHAGTMLTTFTAQDPDRYMQQNIRYTKLSDPANWLKIDPVNGQITTIAVLDRESPNVKNNIYNATFLASDNGIPPMSGTGTLQIYLLDINDNAPQVLPQEAETCETPDPNSINITALDYDIDPNAGPFAFDLPLSPVTIKRNWTITRLNGDFAQLNLKIKFLEAGIYEVPIIITDSGNPPKSNISILRVKVCQCDSNGDCTDVDRIVGAGLGTGA
modifications: left off: a dimerising Fc or GST
SMA expression ([3]; HLFs treated with 10 μg/ml N-Cadherin-Fc for 24 h, FIG. 2A): significant increase | additive or synergistic effect on SMA expression ([3]; combination of TGFβ and N-Cadherin-Fc, 24 h): did not observe an additive or synergistic effect | HLF migration into the wound [5]: significant increase | EMT, measured by decreased E-Cadherin signal [6]: significant EMT
